{"source": "patent US20150030667A1", "about": "“COMPOSITIONS AND METHODS FOR TREATING U[…]” (priority 2013, published 2015)", "system": "bladder (detrusor) contractility of BoNT treated rats", "details": "rat, in vivo"}
{"smiles": "CN(C)C(=O)Oc1cccc([N+](C)(C)C)c1", "note": "[neostigmine]", "values": [{"measurement": "amplitude of contraction", "value": "raised"}, {"measurement": "baseline pressure", "value": "without affecting baseline pressure"}, {"measurement": "contractility", "value": "improves contractility"}, {"measurement": "duration of contraction", "value": "significant increase"}, {"measurement": "duration of voiding contraction", "value": "increase"}, {"measurement": "interval between bladder contractions", "value": "decrease"}]}
